One data set relates to hemozoin synthesis. Description: In vivo inhibition of hemozoin synthesis in P. yoelii infected mice. The settings on record: oral, 3 days, curcumin fed bound to chitosan nanoparticles. On the procedure:
Infected mice were divided into 4 groups (each having 4 mice), namely: • 1. Control group which was further sub-divided into the infected control group, olive oil control group and chitosan control group • 2. Infected and fed with Chloroquinine (1.7 mg in 100 μl of normal saline/mouse/day orally) • 3. […] Infected and fed with Chitosan nanoparticles (200 micrograms of chitosan/day) orally
Red blood cells were purified on the third day of treatment. […] The cells were centrifuged at 10,000 g for 10 min, supernatant was discarded and the pellet washed in 1 ml of 0.1 M alkaline bicarbonate buffer (pH 9.2).

Data set [1] can be described thus: Effect on kidney function in human volunteers. Format: in vivo. Conditions: 500 mg/day/person orally.
Data set [2] is described as follows: Effect on fasting blood sugar levels in human volunteers. Format: in vivo. Conditions: 500 mg/day/person orally, 15 days. The text has this:
The results of the analysis are depicted in FIG. 11.

Data set [3] is described as follows: Effect on hemoglobin and RBC level of human volunteers. The format is in vivo. The settings on record: 500 mg/day/person orally, 15 days.
The nature of data set [4]: Effect on liver inflammation in human volunteers. Format: in vivo. Conditions: 500 mg/day/person orally, 15 days. The text has this: Results of said tests are depicted in FIGS. 15.1-15.5.
Data set [5] in a line: Effect on globulin level, eosinophils, neutrophils and platelet count of human volunteers. The format is in vivo. The settings on record: 500 mg/day/person orally, 15 days.

Structures are written as SMILES.

2 compounds from patent US20110190399A1 (priority 2008, published 2011) can be followed below.

Regarding `CCN(CC)CCCC(C)Nc1ccnc2cc(Cl)ccc12` (stereo not shown) [chloroquine], the “hemozoin formation in vivo” value in the data set on hemozoin synthesis is “inhibited hemozoin formation in vivo”.

Regarding `COc1cc(/C=C/C(=O)CC(=O)/C=C/c2ccc(O)c(OC)c2)ccc1O` [curcumin, Curcumin], the “change in potassium level” value in data set [1] (human volunteers (7), 15 days) is reported as “increase”. In addition, in data set [1] (human volunteers, 15 days), the “change in serum creatinine and urea levels” value was “slight decrease”. In addition, the “serum creatinine, urea and potassium levels” value in data set [1] (human volunteers, before and after 15 days) is “within the normal range”. Further, the “hemozoin formation in vivo” value with hemozoin synthesis is on record as “inhibited hemozoin formation in vivo”. Also, the fasting glucose level result in data set [2] was “not altered”. Besides, in data set [3], the “blood hemoglobin and RBCs (anemic condition, RBC counts)” value is listed as “no adverse effect”. In addition, in data set [4], the “ALP and Bilirubin levels” value is given as “in the normal range except in one or two cases”; the “adverse effect on liver function” value is reported as “do not have any adverse effect on liver function”. Further, the “levels of eosinophiles, neutrophils and platelets” value in data set [5] is recorded as “no significant effect”.
